The nature of series [1]: TXA2 antagonist and/or TXA2 synthase inhibitory properties (general statement, standard tests). Conditions: qualitative statement. The procedure:
(§1) The samples treated with anti-coagulant are first incubated at 37° C. with collegen (at about 100 micro M), then mixed with the cyclooxygenase inhibitor indomethancin (at about […]), centrifuged and the level of the TXA2 metabolite TXB2 determined by a standard radioimmunoassay technique. By comparison of the amount of TXB2 present in the plasma from animals dosed with test compound with that in the plasma of a control group dosed with placebo, the TXA2 synthase inhibitory properties may be assessed.

The nature of series [2]: observation of signs of toxicity in rats in test (f). Type of series: in vivo, rat. Conditions: oral dose of 100 mg/kg to rats.
For series [3], the system named is TXA2 synthase. Kind of series: test (f): TXB2 production in blood samples from dosed laboratory animals. Conditions: 3 hours following an oral dose of 100 mg/kg to rats. The format is in vivo, rat. As for the experimental part:
as §1

For series [4], the target named is T1, TXA2 synthase (Homo sapiens, UniProt P24557).
T1 construct: using a human platelet microsomal TXA2 synthase preparation; from tissue; host or cells: human platelet microsomes
T1 sequence (P24557 1-533): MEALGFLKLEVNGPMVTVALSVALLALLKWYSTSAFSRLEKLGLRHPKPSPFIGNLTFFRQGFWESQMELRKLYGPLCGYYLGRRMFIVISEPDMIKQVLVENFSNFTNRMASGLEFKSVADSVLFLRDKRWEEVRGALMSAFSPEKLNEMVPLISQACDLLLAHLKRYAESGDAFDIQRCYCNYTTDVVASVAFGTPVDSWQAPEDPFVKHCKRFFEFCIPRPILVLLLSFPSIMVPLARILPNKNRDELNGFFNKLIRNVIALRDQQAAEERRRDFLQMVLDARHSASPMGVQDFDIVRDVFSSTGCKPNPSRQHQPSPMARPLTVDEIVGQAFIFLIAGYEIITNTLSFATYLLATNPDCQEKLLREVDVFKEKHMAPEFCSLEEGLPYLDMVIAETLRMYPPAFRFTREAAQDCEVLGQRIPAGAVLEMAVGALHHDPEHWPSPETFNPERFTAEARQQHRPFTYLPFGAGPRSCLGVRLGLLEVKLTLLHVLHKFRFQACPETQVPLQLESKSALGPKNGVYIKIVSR
Kind of series: test (e): in vitro TXA2 synthase inhibition, human platelet microsomal TXA2 synthase preparation. Type of series: biochemical.

Series [5] concerns the target T2, TXA2 receptor (Rattus norvegicus, UniProt P34978).
T2 construct: The rat aortic strip model; from tissue; host or cells: rat aortic strip
T2 sequence (P34978 1-341): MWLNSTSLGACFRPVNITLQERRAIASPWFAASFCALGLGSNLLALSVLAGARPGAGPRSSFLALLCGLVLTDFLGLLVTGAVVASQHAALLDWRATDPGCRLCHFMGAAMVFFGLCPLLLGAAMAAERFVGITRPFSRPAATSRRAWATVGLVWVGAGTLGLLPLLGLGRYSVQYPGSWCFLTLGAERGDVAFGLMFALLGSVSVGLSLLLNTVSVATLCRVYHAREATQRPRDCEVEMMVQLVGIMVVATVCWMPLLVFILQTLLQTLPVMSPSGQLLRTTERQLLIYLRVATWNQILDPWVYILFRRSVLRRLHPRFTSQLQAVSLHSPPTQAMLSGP
As to the kind of experiment: test (a): rat aortic strip model, U46619 as agonist. Type of series: cell-based. Conditions: read-out: pA2 (converted). From the text:
(a) The rat aortic strip model (based on that devised by Piper and Vane (Nature, 1969, 223, 29-35) in the rabbit) using as agonist the TXA2 mimetic agent known as U46619 (described by R. L. Jones et alia in "Chemistry, Biochemistry and Pharmacological Activity of Prostanoids" edited by S. M. Roberts and F. Scheinmann, at page 211; Pergamon Press, 1979);

The target of series [6] is T3, TXA2 receptor (Homo sapiens, UniProt P21731).
T3 construct: aggregating human, citrated, platelet-rich plasma; endogenous in cells; host or cells: human platelets in citrated platelet-rich plasma
T3 sequence (P21731 1-343): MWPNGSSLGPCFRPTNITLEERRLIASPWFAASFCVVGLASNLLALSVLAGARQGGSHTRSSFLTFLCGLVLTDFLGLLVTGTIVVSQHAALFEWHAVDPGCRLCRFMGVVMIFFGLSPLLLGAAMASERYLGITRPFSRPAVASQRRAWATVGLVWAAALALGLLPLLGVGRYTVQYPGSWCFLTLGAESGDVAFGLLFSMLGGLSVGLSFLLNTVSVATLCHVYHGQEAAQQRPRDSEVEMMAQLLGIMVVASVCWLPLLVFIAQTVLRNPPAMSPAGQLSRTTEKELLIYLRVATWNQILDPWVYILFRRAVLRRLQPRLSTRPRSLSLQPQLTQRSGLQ
Kind of series: test (b): blood platelet aggregation test, U46619 stimulated, human platelet-rich plasma. The format is cell-based. The text has this: (b) a blood platelet aggregation test based on that described by Born (Nature, 1962, 194, 927-929) and involving:
(i) aggregating human, citrated, platelet-rich plasma by addition of the TXA2 mimetic agent U46619 so that a dose-response curve is generated;
(ii) generating a dose-response curve for U46619 stimulated platelet aggregation in the presence of increasing amounts of test compound (generally in the range 10^-5 M to 10^-10 M); and
(iii) calculating a KB value indicating potency of TXA2 antagonism for the test compound, average over several concentrations, from the calculated 50% response value for U46619 aggregation in the presence and absence of test compound; or […]

“Also recorded” adds a separate entry of the source.

Take `O=C(O)CCC/C=C\C[C@@H]1CO[C@H](Cc2cccnc2)O[C@@H]1c1ccccc1O` (relative stereo) [Example 2, 5(Z)-7-([2,4,5-cis]-4-o-hydroxyphenyl-2-[3-pyridylmethyl]-1,3-dioxan-5-yl)heptenoic acid]: the “TXA2 antagonist and/or TXA2 synthase inhibitory properties” value in series [1] is “combined antagonist and TXA2 synthase inhibitory properties”. On the same count and under the same terms, with `O=C(O)CCCC/C=C\C[C@@H]1CO[C@H](c2ccncc2)O[C@@H]1c1ccccc1O` (relative stereo) [Example 9, 6(Z)-8-([2,4,5-cis]-4-o-hydroxyphenyl-2-[4-pyridyl]-1,3-dioxan-5-yl)octenoic acid] the entry was “predominantly TXA2 synthase inhibitory properties”. The same measure, in the same setting: in the case of `CC(C)(Cc1cccnc1)[C@H]1OC[C@@H](C/C=C\CCC(=O)O)[C@@H](c2ccccc2O)O1` (relative stereo) [Example 18, 4(Z)-6-([2,4,5-cis]-4-o-hydroxyphenyl-2-[2-(3-pyridyl)-1,1-dimethylethyl]-1,3-dioxan-5-yl)hexenoic acid] it was “combined antagonist and TXA2 synthase inhibitory properties”; in that of `CC(C)(Oc1cccnc1)[C@H]1OC[C@@H](C/C=C\CCC(=O)O)[C@@H](c2ccccc2O)O1` (relative stereo) [Example 23, 4(Z)-6-([2,4,5-cis]-4-o-hydroxyphenyl-2-[1-(3-pyridyloxy)-1-methylethyl]-1,3-dioxan-5-yl)hexenoic acid], “combined antagonist and TXA2 synthase inhibitory properties”; in that of `CC(C)(c1cccnc1)[C@H]1OC[C@@H](C/C=C\CCC(=O)O)[C@@H](c2ccccc2O)O1` (relative stereo) [Example 17, 4(Z)-6-([2,4,5-cis]-4-o-hydroxyphenyl-2-[1-(3-pyridyl)-1-methylethyl]-1,3-dioxan-5-yl)hexenoic acid], “combined antagonist and TXA2 synthase inhibitory properties”. Take `O=C(O)CC/C=C\C[C@@H]1CO[C@H](c2ccccn2)O[C@@H]1c1ccccc1O` (relative stereo) [Example 4, 4(Z)-6-([2,4,5-cis]-4-o-hydroxyphenyl-2-[2-pyridyl]-1,3-dioxan-5-yl)hexenoic acid]: the “TXA2 antagonist and/or TXA2 synthase inhibitory properties” value in series [1] was “TXA2 antagonist properties”. In the case of `O=C(O)CC/C=C\C[C@@H]1CO[C@H](Cc2cccnc2)O[C@@H]1c1ccccc1O` (relative stereo) [Example 12, 4(Z)-6-([2,4,5-cis]-4-o-hydroxyphenyl-2-[3-pyridylmethyl]-1,3-dioxan-5-yl)hexenoic acid], the “TXA2 antagonist and/or TXA2 synthase inhibitory properties” value in series [1] was “combined antagonist and TXA2 synthase inhibitory properties”.

As to `O=C(O)CC/C=C\C[C@@H]1CO[C@H](c2cccnc2)O[C@@H]1c1ccccc1O` (relative stereo) [Example 1, 4(Z)-6-([2,4,5-cis]-4-o-hydroxyphenyl-2-[3-pyridyl]-1,3-dioxan-5-yl)hexenoic acid], the “observable signs of toxicity to the test animals” value in series [2] was “without any observable signs of toxicity”. The “inhibition of TXB2 production” value with TXA2 synthase [3] was “essentially complete inhibition of TXB2 production”. In addition, the IC50 on TXA2 synthase [4] turned out to be 3140 nM. Moreover, the Kb was 79.4 nM on TXA2 receptor [5] and 17 nM on TXA2 receptor [6]. For the same molecule, the “TXA2 antagonist and/or TXA2 synthase inhibitory properties” value in series [1] is “combined antagonist and TXA2 synthase inhibitory properties; also recorded: both TXA2 antagonist and TXA2 synthase inhibitory properties”. Turning to `O=C(O)CC/C=C\C[C@@H]1CO[C@H](Cc2ccccn2)O[C@@H]1c1ccccc1O` (relative stereo) [Example 11, 4(Z)-6-([2,4,5-cis]-4-o-hydroxyphenyl-2-[2-pyridylmethyl]-1,3-dioxan-5-yl)hexenoic acid], the “TXA2 antagonist and/or TXA2 synthase inhibitory properties” value in series [1] is reported as “TXA2 antagonist properties”.

For the molecule `CC(C)(c1cccnc1)[C@H]1OC[C@@H](C/C=C\CCCC(=O)O)[C@@H](c2ccccc2O)O1` (relative stereo) [Example 19, 5(Z)-7-([2,4,5-cis]-4-o-hydroxyphenyl-2[1-(3-pyridyl)-1-methylethyl]-1,3-dioxan-5-yl)heptenoic acid], in series [1], the “TXA2 antagonist and/or TXA2 synthase inhibitory properties” value was “combined antagonist and TXA2 synthase inhibitory properties”. Still for that read-out and setting: in the case of `O=C(O)CCC/C=C\C[C@@H]1CO[C@H](Cc2cccnc2)O[C@@H]1c1ccccc1` (relative stereo) [Example 16, 5(Z)-7-(4-phenyl-2-[3-pyridylmethyl]-1,3-dioxan-5-yl)heptenoic acid] it was “predominantly TXA2 synthase inhibitory properties”.

The values above are taken from patent US4921866A, “1,3-dioxanes” (Imperial Chemical Industries plc, priority 1987, dated 1990).
